US7034051B2, “Fused bicyclic carboxamide derivatives and methods of their use” (Adolor Corporation, priority 2003, dated 2006)

What was measured:
[1] = system: formalin-induced flinching in rats; experiment: In vivo formalin-induced nociception assay; set-up: species or system rat; conditions: dose of 300 μg, i.paw
Text: Administration of formalin into the paw results in a localized inflammation and a pain response that is moderate in intensity and continuous in duration. Unlike many other assays of nociception, the formalin assay measures tonic pain that is a result of tissue injury, and therefore is a model which is more relevant to clinical pain states in humans (see Tjolsen et al., Pain 51: 5–17, 1992). In the rat the response to formalin-induced pain consists of spontaneous flinching behavior, characterized by paw lifting and paw shaking, and a rapid vibration of the paw after drawing it under the body. […] The early or acute phase lasts from 0–5 minutes post-formalin and is followed by a quiescent period lasting approximately 15 minutes. The tonic phase occurs from 20–35 minutes following formalin injection and is the interval where the number of flinching responses is maximal. […]
Inflammation is induced by subcutaneous injection of […] of a 5% formalin solution into the dorsal surface of the right hind paw of male Sprague-Dawley rats weighing 70–90 g. Injections of drug are given into the dorsal surface of the paw prior to formalin injection, and flinching behavior is quantitated by counting the number of responses that occur during the tonic phase of pain, lasting from 20–35 min after formalin injection. […]

[2] = molecular target: T1, cloned human δ opioid receptor (Homo sapiens, UniProt P41143); experiment: In vitro binding assay, inhibition of [3H]diprenorphine binding to cloned human δ opioid receptor
T1 construct: expressed in transfected cells
Procedure: IC50 values were obtained by nonlinear analysis of the data using GraphPad Prism version 3.00 for Windows (GraphPad Software, San Diego). Ki values were obtained by Cheng-Prusoff corrections of IC50 values.
After incubation at room temperature for one hour, the samples were filtered through GF/B filters that had been presoaked in a solution of 0.5% (w/v) polyethylenimine and 0.1% (w/v) bovine serum albumin in water. The filters were rinsed 4 times with 1 mL of cold 50 mM Tris HCl, pH 7.8 and radioactivity remaining on the filters determined by scintillation spectroscopy. Nonspecific binding was determined by the minimum values of the titration curves and was confirmed by separate assay wells containing 10 μM naloxone.
To determine the equilibrium dissociation constant for the inhibitors (Ki), radioligand bound (cpm) in the presence of various concentrations of test compounds was measured. The concentration to give half-maximal inhibition (EC50) of radioligand binding was determined from a best nonlinear regression fit to the following equation,
The nonlinear regression fit was performed using the program Prism® (GraphPad Software, San Diego, Calif.). The Ki values were then determined from the EC50 values by the following equation, […]

T1 sequence (P41143 whole entry): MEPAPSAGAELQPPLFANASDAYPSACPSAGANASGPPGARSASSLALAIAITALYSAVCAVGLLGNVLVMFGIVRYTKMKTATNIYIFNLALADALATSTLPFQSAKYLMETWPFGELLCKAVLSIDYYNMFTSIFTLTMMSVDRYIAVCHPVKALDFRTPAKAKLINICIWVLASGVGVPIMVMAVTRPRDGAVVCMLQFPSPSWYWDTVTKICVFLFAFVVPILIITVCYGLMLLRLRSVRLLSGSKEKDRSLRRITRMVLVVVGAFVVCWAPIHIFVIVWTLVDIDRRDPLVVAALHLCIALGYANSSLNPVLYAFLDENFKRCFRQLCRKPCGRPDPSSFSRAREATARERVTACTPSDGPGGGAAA

In the case of `COC(=O)NCc1ccc2c(c1)CC[C@H](C(=O)N(C)[C@H](CN1CC[C@H](O)C1)c1ccccc1)O2` [Example 52, (2-{[2-({S}-3-Hydroxy-pyrrolidin-1-yl)-{S}-1-phenyl-ethyl]-(R)-methyl-carbamoyl}-chroman-6-ylmethyl)-carbamic acidmethyl ester], the “% A (percent antagonism of formalin-induced flinching)” value [1] is reported as 95% and the Ki [2] is reported as 1600 nM.
